Publication PMC9953468, “In Silico, In Vitro, and Ex Vivo Biological Activity of Some Novel Mebeverine Precursors” (Biomedicines, 2023)
Marks after values point to notes of the source that are not given here.

Tests used:
[1] = system: SM preparations from the corpus gastric muscle; assay: Ex vivo bioelectrical activity of smooth muscle preparations, single sucrose gap method; set-up: species or system Wistar rats; conditions: 5 × 10^−5 M; for Amplitude of slow waves, Measured value / Amplitude of spike potentials, Measured value / Number of slow waves, Measured value / Number of spike potentials, Measured value: 10 min, n = 7, mean ± SEM
Method: Adult male Wistar rats weighing 280–300 g were used. Animals were housed in standard laboratory conditions (23 to 25 °C, 50–55% humidity, 12/12 h light/dark cycle), while food and water were provided ad libitum.
Circular SM preparations were dissected from the corpus gastric muscle (26–28 mm long and 0.8–0.9 mm wide; without mucosa). Two or three muscle strips were taken from the rat stomach. The number of SM preparations used for each data point is indicated by n. After dissection, the tissues must prevent loss of viability, so during the dissection, the tissues were systematically moistened with a solution (NaCl:KCl:CaCl2 in ratio 27.2:1.1:1) prepared at 4 °C.
The BEA of SM preparations was investigated by means of the single sucrose gap method with silver non-polarizable freshly chlorinated electrodes. The muscle strips were divided into 3 zones: two electrode sections were flushed with isotonic KCl solution and Krebs solution (pH 7.3), respectively, and separated by a sucrose layer of high electric resistance. Krebs contained the following (in mM): NaCl 120; KCl 5.9; CaCl2 2.5; MgCl2 1.2; NaH2PO4 1.2; NaHCO3 15.4; glucose 11.5. All the ingredients for this solution were of analytical grade and obtained from Merck (Darmstadt, Germany). Deionized water (18.2 mX/cm^2) was used thoroughly. The KCl solution is similar to the Krebs solution but with an equimolar substitution of NaCl with KCl. An isotonic sucrose solution, due to its very high specific resistance (about 10^6 Ω·cm), provides the best possible separation of the sucrose solution from the physiological solution in the “normal” pool, on the one hand, and the solution providing a zero value of the membrane potential in the pool with another recording electrode.
The inflow rate of each solution (Krebs, KCl, and isotonic sucrose solution) was controlled by a needle valve and continuously aerated with a mixture of 95% O2 and 5% CO2, and the temperature was maintained at 37 °C. A potential difference between the two end sections of the gap (control conditions) was achieved by means of silver non-polarizable, freshly chlorinated electrodes and after a 40-min period of adaptation and stabilization was accepted as the initial (control). The Krebs solution was changed several times during the adaptation period. The viability of the SM preparations was periodically tested by treatment with 1 × 10^−6 M ACh.
The membrane potential value was visualized by means of a Linseis recorder (Selb, Germany). A pair of measuring electrodes is located on both sides of the sucrose sections. The pH (pH 7.3; 37 °C) of the Krebs bathing solution was measured before each experiment by pH-meter HI5521 (Hanna Instruments Inc., Woonsocket, RI, USA). […]
The new substances were dissolved initially in dimethyl sulphoxide (DMSO) to prepare a 5 × 10^−2 M stock solution. Further dilutions were made in distilled deionized water and were applied by adding aliquots of their concentrated solutions to the tissue bath.

[2] = system: Klebsiella sp.; assay: Antimicrobial activity, agar well diffusion method; format: cell-based; conditions: Dose 0.6 mg/disk, dwell = 6 mm
Description: (§1) Eighteen tested microorganisms including five Gram-positive bacteria (Bacillus subtilis ATCC 6633, Bacillus amyloliquefaciens 4BCL-YT, Staphylococcus aureus ATCC 25923, Listeria monocytogenes NBIMCC 8632, Enterococcus faecalis ATCC 19433), five Gram-negative bacteria (Salmonella enteritidis ATCC 13076, Klebsiella sp.—clinical isolate, Escherichia coli ATCC 25922, Proteus vulgaris ATCC 6380, Pseudomonas aeruginosa ATCC 9027), two yeasts (Candida albicans NBIMCC 74, Saccharomyces cerevisiae ATCC 9763) and six fungi (Aspergillus niger ATCC 1015, Aspergillus flavus, Penicillium sp., Rhizopus sp., Mucor sp.—plant isolates, Fusarium moniliforme ATCC 38932) from the collection of the Department of Microbiology at the University of Food Technologies—Plovdiv, Bulgaria, were selected for the antimicrobial activity test.
(§2) The antimicrobial activity of the samples was determined by the agar well diffusion method. The tested bacteria B. subtilis and B. amyloliquefaciens were cultured on LBG agar at 30 °C. The test bacteria S. aureus, L. monocytogenes, E. faecalis, S. enteritidis, Klebsiella sp., E. coli, P. vulgaris and P. aeruginosa were cultured on LBG agar at 37 °C for 24 h. The yeast C. albicans was cultured on MEA at 37 °C, while S. cerevisiae was cultured on MEA at 30 °C for 24 h. The fungi A. niger, A. flavus, Penicillium sp., Rhizopus sp., Mucor sp., and F. moniliforme were grown on MEA at 30 °C for 7 days or until sporulation.
(§3) The inocula of the tested bacteria/yeasts were prepared by homogenization of a small amount of biomass in 5 mL of sterile 0.5% NaCl. The inocula of tested fungi were prepared by the addition of 5 mL of sterile 0.5% NaCl into the tubes. After stirring by vortex V-1 plus (Biosan), they were filtered and replaced in other tubes before use. The number of viable cells and fungal spores was determined using a bacterial counting chamber Thoma (Poly-Optik, GmbH, Bad Blankenburg, Germany). Their final concentrations were adjusted to 10^8 cfu/mL for bacterial/yeast cells and 10^5 cfu/mL for fungal spores and then inoculated in preliminarily melted and tempered at 45–48 °C LBG/MEA agar media. Next, the inoculated media were transferred in a quantity of 18 mL in sterile Petri plates (d = 90 mm) (Gosselin™, Hazebrouck, France) and allowed to harden. Then, six wells (d = 6 mm) per plate were cut, and triplicates of 60 μL of each extract were pipetted into the agar wells. The Petri plates were incubated in identical conditions.
(§4) The antimicrobial activity was determined by measuring the diameter of the inhibition zones around the wells on the 24th and 48th h of incubation. […]

[3] = system: Pseudomonas aeruginosa ATCC 9027; assay: Antimicrobial activity, agar well diffusion method; format: cell-based; conditions: Dose 0.6 mg/disk, dwell = 6 mm
Description: as §1, §2, §3, §4

[4] = system: Saccharomyces cerevisiae; assay: Antimicrobial activity, agar well diffusion method; format: cell-based; conditions: Dose 0.6 mg/disk, dwell = 6 mm
Description: as §1, §2, §3, §4

[5] = system: Escherichia coli ATCC 25922; assay: Antimicrobial activity, agar well diffusion method; format: cell-based; conditions: Dose 0.6 mg/disk, dwell = 6 mm
Description: as §1, §2, §3, §4

Row | Structure (SMILES) | Amplitude of slow waves, Measured value [1] [mV] | Amplitude of spike potentials, Measured value [1] | Number of slow waves, Measured value [1] [min⁻¹] | Number of spike potentials, Measured value [1] | Changes in the membrane potential ([1]; base activity taken as 100%, ↑ depolarization, ↓ hyperpolarization) [%] | Inhibition Zones [2] [mm] | Inhibition Zones [3] [mm] | Inhibition Zones [4] [mm] | effect on bioelectrical activity (slow waves, spike potentials) ([1]; in words) | Inhibition Zones [5] [mm]
1 | CC(C)C(N)Cc1ccccc1 (centres unmarked) [Compound 3, 3-Methyl-1-phenylbutan-2-amine] | 5.28 ± 0.33 | 2.61 ± 0.16 mV | 4.90 ± 0.09 | 48.22 ± 0.39 * min^−1 | 55 | 8 | 9 | 8 |  | 
2 | CC(=O)NC(Cc1ccccc1)C(C)C (centres unmarked) [Compound 4a, N-(3-methyl-1-phenylbutan-2-yl)acetamide] | 4.32 ± 0.38 | 0 * mV | 4.72 ± 0.55 | 0 * min^−1 |  |  |  |  | complete disappearance of the spike potentials | 8
